Data set [1] deals with O-GlcNAcase (Rattus norvegicus (Rat), UniProt Q8VIJ5). The experiment in a line: Cell-based ELISA for cellular activity of compounds that inhibit O-GlcNAcase (O-GlcNAcylated protein detected with RL-2 antibody). Conditions: rat PC-12 cells, treated 24 h, O-GlcNAcylated protein by RL-2 ELISA. Background: In an ELISA, binding on a coated surface is turned into a signal by an enzyme label.
Excerpt: Assay for Determination of Cellular Activity for Compounds that Inhibit O-GlcNAcase Activity
Inhibition of O-GlcNAcase, which removes O-GlcNAc from cellular proteins, results in an increase in the level of O-GlcNAcylated protein in cells. An increase in 0-GlcNAcylated protein can be measured by an antibody, such as RL-2, that binds to 0-GlcNAcylated protein. The amount of O-GlcNAcylated protein:RL2 antibody interaction can be measured by enzyme linked immunosorbant assay (ELISA) procedures.
A variety of tissue culture cell lines, expressing endogenous levels of O-GlcNAcase, can be utilized; examples include rat PC-12, and human U-87, or SK-N-SH cells. In this assay, rat PC-12 cells are plated in 96-well plates with approximately 10,000 cells/well. Compounds to be tested are dissolved in DMSO, either 2 or 10 mM stock solution, and then diluted with DMSO and water in a two-step process using a Tecan workstation. […] To prepare a cell lysate, the media from compound treated cells is removed, the cells are washed once with phosphate buffered saline (PBS) and then lysed for 5 minutes at room temperature in 50 μL of Phosphosafe reagent (Novagen Inc, Madison, Wis.) with protease inhibitors and PMSF. The cell lysate is collected and transferred to a new plate, which is then either coated to assay plates directly or frozen −80° C. until used in the ELISA procedure. If desired, the total protein concentration of samples is determined using 20 μL of the sample using the BCA method.
The ELISA portion of the assay is performed in a black Maxisorp 96-well plate that is coated overnight at 4° C. with 100 μL/well of the cell lysate (1:10 dilution of the lysate with PBS containing protease inhibitors, phosphatase inhibitors, and PMSF). The following day the wells are washed 3 times with 300 μL/well of Wash buffer (Tris-buffered saline with 0.1% Tween 20). The wells are blocked with 100 μL/well Blocking buffer (Tris buffered saline w/0.05% Tween 20 and 2.5% Bovine serum albumin). Each well is then washed two times with 300 μL/well of wash buffer. The anti O-GlcNAc antibody RL-2 (Abcam, Cambridge, Mass.), diluted 1:1000 in blocking buffer, is added at 100 μL/well. The plate is sealed and incubated at 37° C. for 2 h with gentle shaking. The wells are then washed 3-times with 300 μL/well wash buffer. […] The detection reaction is incubated for 15 minutes at room temperature and then read with excitation at 530 nm and emission at 590 nm.
The amount of O-GlcNAcylated protein, as detected by the ELISA assay, is plotted for each concentration of test compound using standard curve fitting algorithms for sigmoidal dose response curves. The values for a four parameter logistic curve fit of the data are determined, with the inflection point of the curve being the potency value for the test compound.

Data set [2] addresses human O-GlcNAcase (Homo sapiens (Human), UniProt O60502). The experiment in a line: Fluorescence-based assay for KI values for inhibition of O-GlcNAcase activity. It is filed as biochemical. Conditions: purified human O-GlcNAcase 0.7 nM, 2 mM 4-methylumbelliferyl GlcNAc substrate, pH 7.0, Cheng-Prusoff; read-out: Fluorescence-based hOGA Ki.
Description: Assay for Determination of KI Values for Inhibition of O-GlcNAcase Activity
Experimental Procedure for Kinetic Analyses:
Enzymatic reactions were carried out in a reaction containing 50 mM NaH2PO4, 100 mM NaCl and 0.1% BSA (pH 7.0) using 2 mM 4-Methylumbelliferyl N-acetyl-β-D-glucosaminide dihydrate (Sigma M2133) dissolved in ddH2O, as a substrate. The amount of purified human O-GlcNAcase enzyme used in the reaction was 0.7 nM. Test compound of varying concentrations was added to the enzyme prior to initiation of the reaction. The reaction was performed at room temperature in a 96-well plate and was initiated with the addition of substrate. […] The slope of product production was determined for each concentration of compound tested and plotted, using standard curve fitting algorithms for sigmoidal dose response curves. The values for a four parameter logistic curve fit of the data were determined.
Data set [3] can be described thus: Apparent permeability (Papp), bi-directional transport in LLC-PK1 cells. The class given is in vitro ADME. The settings on record: pig, 1 μM test compound, t=3 h, average of A to B and B to A. Here is the method: Assay for Determination of Apparent Permeability (Papp)
Bi-directional transport was evaluated in LLC-PK1 cells in order to determine apparent permeability (Papp). LLC-PK1 cells can form a tight monolayer and therefore can be used to assess vectorial transport of compounds from basolateral to apical (B→A) and from apical to basolateral (A→B).
To determine Papp, LLC-PK1 cells were cultured in 96-well transwell culture plates (Millipore). Solutions containing the test compounds (1 μM) were prepared in Hank's Balanced Salt Solution with 10 mM HEPES. Substrate solution (150 μL) was added to either the apical (A) or the basolateral (B) compartment of the culture plate, and buffer (150 μL) was added to the compartment opposite to that containing the compound. At t=3 h, 50 μL samples were removed from both sides of monolayers dosed with test compound and placed in 96 well plates, scintillant (200 μL) or internal standard (100 μL labetolol 1 μM) was added to the samples and concentration was determined by liquid scintillation counting in a MicroBeta Wallac Trilux scintillation counter (Perkin Elmer Life Sciences, Boston, Mass.) or by LCMS/MS (Applied Biosystems SCIEX API 5000 triple quadruple mass spectrometer). […]
The apparent permeability, Papp, was calculated by the following formula for samples taken at t=3 h:
[formula] […] Papp was expressed as 10^−6 cm/s. […]

For six compounds, EC50, Ki and Papp results are on record in patent US9695197B2, “Glycosidase inhibitors and uses thereof” (Alectos Therapeutics Inc., priority 2012, dated 2017).

As a reminder, the EC50 is the concentration at which the effect is half-maximal. A low value points to a more potent agent. By Ki is commonly meant a measure of affinity in units of concentration, obtained from inhibition or displacement. For orientation: Papp means the rate of passage across a membrane or cell layer, normalised by area and donor concentration.

Sequence of human O-GlcNAcase (O60502 whole entry): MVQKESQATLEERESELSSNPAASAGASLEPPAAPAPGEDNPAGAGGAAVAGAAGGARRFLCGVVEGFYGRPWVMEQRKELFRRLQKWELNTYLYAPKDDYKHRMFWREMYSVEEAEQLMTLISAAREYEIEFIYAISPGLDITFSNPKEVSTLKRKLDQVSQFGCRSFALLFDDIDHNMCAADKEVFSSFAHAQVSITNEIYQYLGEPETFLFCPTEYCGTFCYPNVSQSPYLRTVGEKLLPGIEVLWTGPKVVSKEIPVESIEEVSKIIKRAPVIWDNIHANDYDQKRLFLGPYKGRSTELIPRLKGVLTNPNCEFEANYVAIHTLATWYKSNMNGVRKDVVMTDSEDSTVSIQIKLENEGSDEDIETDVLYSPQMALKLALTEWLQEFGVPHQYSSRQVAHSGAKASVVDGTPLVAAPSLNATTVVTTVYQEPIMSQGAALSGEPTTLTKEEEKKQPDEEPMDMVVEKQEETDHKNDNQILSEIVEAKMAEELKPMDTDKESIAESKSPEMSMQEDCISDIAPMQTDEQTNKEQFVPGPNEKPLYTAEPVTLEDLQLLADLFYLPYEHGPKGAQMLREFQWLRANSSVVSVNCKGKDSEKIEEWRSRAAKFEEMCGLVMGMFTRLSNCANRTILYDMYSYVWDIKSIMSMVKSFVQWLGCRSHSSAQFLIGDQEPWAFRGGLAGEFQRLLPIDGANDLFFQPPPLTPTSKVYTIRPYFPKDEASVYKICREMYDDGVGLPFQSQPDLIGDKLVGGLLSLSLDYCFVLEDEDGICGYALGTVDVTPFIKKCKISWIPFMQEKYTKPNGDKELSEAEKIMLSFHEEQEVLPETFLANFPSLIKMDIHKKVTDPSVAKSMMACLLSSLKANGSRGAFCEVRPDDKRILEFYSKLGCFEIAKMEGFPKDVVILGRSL
Sequence of O-GlcNAcase (Q8VIJ5 whole entry): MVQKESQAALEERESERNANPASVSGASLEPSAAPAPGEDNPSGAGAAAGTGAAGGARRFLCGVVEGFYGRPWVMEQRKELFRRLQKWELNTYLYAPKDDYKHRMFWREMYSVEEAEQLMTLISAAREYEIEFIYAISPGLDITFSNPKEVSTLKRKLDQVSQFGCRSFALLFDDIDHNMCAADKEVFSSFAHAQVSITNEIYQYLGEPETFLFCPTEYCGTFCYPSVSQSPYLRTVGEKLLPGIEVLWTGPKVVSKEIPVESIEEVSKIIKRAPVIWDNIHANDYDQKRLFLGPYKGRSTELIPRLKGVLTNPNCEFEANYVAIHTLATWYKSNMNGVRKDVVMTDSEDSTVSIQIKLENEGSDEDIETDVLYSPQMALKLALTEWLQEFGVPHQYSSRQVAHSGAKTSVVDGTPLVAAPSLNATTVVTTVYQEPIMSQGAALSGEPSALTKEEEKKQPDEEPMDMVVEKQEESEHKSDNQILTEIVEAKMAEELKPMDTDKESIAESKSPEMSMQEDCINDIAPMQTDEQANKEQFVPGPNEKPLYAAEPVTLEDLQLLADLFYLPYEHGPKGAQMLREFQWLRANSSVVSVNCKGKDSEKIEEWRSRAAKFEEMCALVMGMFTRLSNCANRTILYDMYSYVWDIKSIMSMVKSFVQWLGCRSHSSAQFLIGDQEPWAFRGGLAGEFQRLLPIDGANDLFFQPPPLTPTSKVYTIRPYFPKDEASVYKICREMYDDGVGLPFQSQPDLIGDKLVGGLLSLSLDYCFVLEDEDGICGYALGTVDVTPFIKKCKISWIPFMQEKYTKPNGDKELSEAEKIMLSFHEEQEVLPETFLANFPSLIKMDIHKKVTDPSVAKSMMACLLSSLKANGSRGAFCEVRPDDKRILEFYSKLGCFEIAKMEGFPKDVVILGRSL

As for `CCNC1=N[C@H]2[C@@H](S1)S[C@H](C(F)F)[C@@H](O)[C@@H]2O` [Example 5, (3aR,5S,6S,7R,7aR)-5-(difluoromethyl)-2-(ethylamino)-5,6,7,7a-tetrahydro-3aH-thiopyrano[3,2-d]thiazole-6,7-diol], a half-maximal effect in data set [1] (EC50) was put at 349 nM. For the same compound, the Ki in data set [2] turned out to be 22 nM.
As to `CCNC1=N[C@@H]2[C@@H](O)[C@H](O)[C@@H](CO)O[C@@H]2S1` [N/A, (3 aR,5R,6S,7R,7aR)-2-(ethylamino)-5-(hydroxymethyl)-5,6,7,7a-tetrahydro-3aH-pyrano[3,2-d]thiazole-6,7-diol, reference compound], in data set [3], the Papp at 3 h, 1 μM is under 1 ×10⁻⁶ cm/s.
With `CNC1=N[C@H]2[C@@H](S1)S[C@H](CO)[C@@H](O)[C@@H]2O` [Example 4, (3aR,5R,6S,7R,7aR)-5-(hydroxymethyl)-2-(methylamino)-5,6,7,7a-tetrahydro-3aH-thiopyrano[3,2-d]thiazole-6,7-diol], in data set [1], the midpoint of the response, the EC50, lay at 3 nM. Further, the Ki in data set [2] worked out at 0.11 nM.
As for `CCNC1=N[C@@H]2[C@@H](O)[C@H](O)[C@@H](CO)S[C@@H]2O1` [Example 1, (3aS,5R,6S,7R,7aR)-2-(ethylamino)-5-(hydroxymethyl)-5,6,7,7a-tetrahydro 3aH-thiopyrano[3,2-d]oxazole-6,7-diol], in data set [2], the Ki was found to be 3 nM.
With `CCNC1=N[C@H]2[C@@H](S1)S[C@H](CO)[C@@H](O)[C@@H]2O` [Example 2, (3aR,5R,6S,7R,7aR)-2-(ethylamino)-5-(hydroxymethyl)-5,6,7,7a-tetrahydro-3aH-thiopyrano[3,2-d]thiazole-6,7-diol], the EC50 in data set [1] was found to be 139 nM. Moreover, in data set [2], the Ki was 3 nM. For the same compound, the Papp at 3 h, 1 μM in data set [3] came to 3.7 ×10⁻⁶ cm/s.
On to `CCCNC1=N[C@H]2[C@@H](S1)S[C@H](CO)[C@@H](O)[C@@H]2O` [Example 3, (3aR,5R,6S,7R,7aR)-5-(hydroxymethyl)-2-(propylamino)-5,6,7,7a-tetrahydro-3aH-thiopyrano[3,2-d]thiazole-6,7-diol], for which the EC50 in data set [1] came to 29 nM. The Ki in data set [2] turned out to be 1.4 nM.
